Measurements: patent US4221811A, “Antifungal and/or antibacterial organotin compounds, and use” (priority 1977, dated 1980)

Legend:
Assay type in all cases: cell-based
P. fluorescens = P. fluorescens (Gram-neg.); after three days; peptone-glucose agar; pH ~ 6.9-7.0
From the text: (§1) Antibacterial activity of organotin compounds. Minimal concentration
(§2) causing complete inhibition of visible growth (MIC; after three days).
(§3) Test medium: peptone-glucose agar; pH ~ 6.9-7.0.

E. coli = E. coli (Gram-neg.); after three days; peptone-glucose agar; pH ~ 6.9-7.0
From the text: as §1, §2, §3

S. lactis = S. lactis (Gram-pos.); after three days; peptone-glucose agar; pH ~ 6.9-7.0
From the text: as §1, §2, §3

B. subtilis = B. subtilis (Gram-pos.); after three days; peptone-glucose agar; pH ~ 6.9-7.0
From the text: as §1, §2, §3

Penicillium italicum = conditions: after three days, glucose-agar, pH~6.9-7.0
From the text: (§4) Antifungal activity of organotin compounds. Minimal concentra-
(§5) tion (mg/l) causing complete inhibition of visible growth (MIC;
(§6) after three days). -Test medium: glucose-agar; pH~6.9-7.0.

Cladosporium cucumerinum = conditions: after three days, glucose-agar, pH~6.9-7.0
From the text: as §4, §5, §6

Aspergillus niger = conditions: after three days, glucose-agar, pH~6.9-7.0
From the text: as §4, §5, §6

Botrytis allii = conditions: after three days, glucose-agar, pH~6.9-7.0
From the text: as §4, §5, §6

| Structure (SMILES) | Minimal concentration causing complete inhibition of visible growth (MIC) (P. fluorescens) | Minimal concentration causing complete inhibition of visible growth (MIC) (E. coli) | Minimal concentration causing complete inhibition of visible growth (MIC) (S. lactis) | Minimal concentration causing complete inhibition of visible growth (MIC) (B. subtilis) | Minimal concentration causing complete inhibition of visible growth (MIC) (Penicillium italicum) | Minimal concentration causing complete inhibition of visible growth (MIC) (Cladosporium cucumerinum) | Minimal concentration causing complete inhibition of visible growth (MIC) (Aspergillus niger) | Minimal concentration causing complete inhibition of visible growth (MIC) (Botrytis allii) |
| --- | --- | --- | --- | --- | --- | --- | --- | --- |
| CCC[CH2][Sn]([CH2]CCC)([CH2]CCN(C)C)[CH2]CCN(C)C [Bu2 Sn[(CH2)3 NMe2]2] | 300 µg/mL | 100 µg/mL | 100 µg/mL | 100 µg/mL | 100 µg/mL | 500 µg/mL | > 500 µg/mL | 50 µg/mL |
| CCC[CH2][Sn]([CH2]CCC)([CH2]CC[N+](C)(C)C)[CH2]CC[N+](C)(C)C.[I-].[I-] [Bu2 Sn[(CH2)3 NMe3 I]2, Bis(trimethylammoniopropyl)dibutyltin diiodide] | > 1000 µg/mL | > 1000 µg/mL | 300 µg/mL | 300 µg/mL | 200 µg/mL | > 500 µg/mL | > 500 µg/mL | 200 µg/mL |
| CCC[CH2][Sn]([CH2]CCC)([CH2]CCC)[CH2]CC(N)=O [Bu3 Sn(CH2)2 CONH2] | 300 µg/mL | > 1000 µg/mL | 10 µg/mL | 3 µg/mL | ≤ 10 µg/mL | ≤ 10 µg/mL | ≤ 20 µg/mL | ≤ 10 µg/mL |
| CCC[CH2][Sn]([CH2]CCC)([CH2]CCC)[CH2]CCN [Bu3 Sn(CH2)3 NH2] | – | – | – | – | 2 µg/mL | 5 µg/mL | 20 µg/mL | – |
| CCC[CH2][Sn]([CH2]CCC)([CH2]CCC)[CH2]CCN(C)C.Cl [Bu3 Sn(CH2)3 NMe2 . HCl] | 300 µg/mL | 300 µg/mL | 10 µg/mL | 10 µg/mL | 5 µg/mL | 5 µg/mL | 5 µg/mL | 5 µg/mL |
| CCC[CH2][Sn]([CH2]CCC)([CH2]CCC)[CH2]CC[N+](C)(C)C.[I-] [Bu3 Sn(CH2)3 NMe3 I] | 300 µg/mL | 30 µg/mL | ≤ 1 µg/mL | ≤ 1 µg/mL | 50 µg/mL | 20 µg/mL | 50 µg/mL | ≤ 10 µg/mL |
| CCC[CH2][Sn]([CH2]CCC)([CH2]CCC)[CH2]CCOC(C)=O [Bu3 Sn(CH2)3 OCOCH3] | 300 µg/mL | > 1000 µg/mL | 100 µg/mL | 100 µg/mL | 20 µg/mL | 20 µg/mL | 50 µg/mL | 50 µg/mL |
| CCC[CH2][Sn]([CH2]CCC)([CH2]CCC)[CH2]CCO [Bu3 Sn(CH2)3 OH] | > 1000 µg/mL | > 1000 µg/mL | 300 µg/mL | 1000 µg/mL | 100 µg/mL | 100 µg/mL | 100 µg/mL | 50 µg/mL |
| CCC[CH2][Sn]([CH2]CCC)([CH2]CCC)[CH2]CCCN [Bu3 Sn(CH2)4 NH2] | 300 µg/mL | 300 µg/mL | 3 µg/mL | 3 µg/mL | – | – | – | – |
| CCC[CH2][Sn]([CH2]C#N)([CH2]CCC)[CH2]CCC [Bu3 SnCH2 CN] | – | – | – | – | 5 µg/mL | – | 1 µg/mL | 20 µg/mL |
| CCC[CH2][Sn]([CH2]CCC)([CH2]CCC)[O]C(C)=O [Bu3 SnOAc, reference compound] | 100 µg/mL | > 500 µg/mL | 5 µg/mL | 2 µg/mL | 0.5 µg/mL | 1 µg/mL | 1 µg/mL | 0.5 µg/mL |
| CCC[CH2][Sn]([CH2]CCC)([CH2]CCC)[CH2]CCC [Bu4 Sn, reference compound] | > 500 µg/mL | > 500 µg/mL | > 500 µg/mL | > 500 µg/mL | > 500 µg/mL | > 500 µg/mL | > 500 µg/mL | > 500 µg/mL |
| CCC[CH2][Sn]([CH3])([CH2]CCC)[CH2]CCNCCCN(C)C [MeBu2 Sn(CH2)3 NH(CH2)3 NMe2, N-[3-(methyldibutylstannyl)propyl-N', N'-dimethyltrimethylene]diamine] | 10 µg/mL | 10 µg/mL | 10 µg/mL | 10 µg/mL | ≤ 10 µg/mL | 50 µg/mL | 50 µg/mL | ≤ 10 µg/mL |
| CCCC[CH2][Sn]([CH2]CCCC)([CH2]CCCC)[CH2]CC[N+](C)(C)C.[I-] [Pent3 Sn(CH2)3 NMe3 I] | – | – | – | – | 20 µg/mL | 20 µg/mL | 20 µg/mL | ≤ 10 µg/mL |
| CC[N+](C)(CC)CC[CH2][Sn]([c]1ccccc1)([c]1ccccc1)[c]1ccccc1.[I-] [Ph3 Sn(CH2)3 NEt2 MeI] | – | – | – | – | 500 µg/mL | – | > 1000 µg/mL | 50 µg/mL |
| C[N+](C)(C)CC[CH2][Sn]([c]1ccccc1)([c]1ccccc1)[c]1ccccc1.[I-] [Ph3 Sn(CH2)3 NMe3 I] | 1000 µg/mL | 1000 µg/mL | 10 µg/mL | 10 µg/mL | 200 µg/mL | 500 µg/mL | > 500 µg/mL | 20 µg/mL |
| O=C([CH2][Sn]([c]1ccccc1)([c]1ccccc1)[c]1ccccc1)[O][Sn]([c]1ccccc1)([c]1ccccc1)[c]1ccccc1 [Ph3 SnCH2 COOSnPh3] | – | – | – | – | ≤ 10 µg/mL | – | ≤ 10 µg/mL | ≤ 10 µg/mL |
| CC[CH2][Sn]([CH2]CC)([CH2]CC)[CH2]CCNCCCN(C)C [Pr3 Sn(CH2)3 NH(CH2)3 NMe2, N-[3-(tripropylstannyl)propyl-N', N'-dimethyltrimethylene]diamine] | 10 µg/mL | 10 µg/mL | 10 µg/mL | 10 µg/mL | ≤ 10 µg/mL | ≤ 10 µg/mL | 10 µg/mL | ≤ 10 µg/mL |
